In assay [1] the target is T1, Protein deacetylase HDAC6 (Homo sapiens, UniProt Q9UBN7).
T1 sequence (Q9UBN7 whole entry): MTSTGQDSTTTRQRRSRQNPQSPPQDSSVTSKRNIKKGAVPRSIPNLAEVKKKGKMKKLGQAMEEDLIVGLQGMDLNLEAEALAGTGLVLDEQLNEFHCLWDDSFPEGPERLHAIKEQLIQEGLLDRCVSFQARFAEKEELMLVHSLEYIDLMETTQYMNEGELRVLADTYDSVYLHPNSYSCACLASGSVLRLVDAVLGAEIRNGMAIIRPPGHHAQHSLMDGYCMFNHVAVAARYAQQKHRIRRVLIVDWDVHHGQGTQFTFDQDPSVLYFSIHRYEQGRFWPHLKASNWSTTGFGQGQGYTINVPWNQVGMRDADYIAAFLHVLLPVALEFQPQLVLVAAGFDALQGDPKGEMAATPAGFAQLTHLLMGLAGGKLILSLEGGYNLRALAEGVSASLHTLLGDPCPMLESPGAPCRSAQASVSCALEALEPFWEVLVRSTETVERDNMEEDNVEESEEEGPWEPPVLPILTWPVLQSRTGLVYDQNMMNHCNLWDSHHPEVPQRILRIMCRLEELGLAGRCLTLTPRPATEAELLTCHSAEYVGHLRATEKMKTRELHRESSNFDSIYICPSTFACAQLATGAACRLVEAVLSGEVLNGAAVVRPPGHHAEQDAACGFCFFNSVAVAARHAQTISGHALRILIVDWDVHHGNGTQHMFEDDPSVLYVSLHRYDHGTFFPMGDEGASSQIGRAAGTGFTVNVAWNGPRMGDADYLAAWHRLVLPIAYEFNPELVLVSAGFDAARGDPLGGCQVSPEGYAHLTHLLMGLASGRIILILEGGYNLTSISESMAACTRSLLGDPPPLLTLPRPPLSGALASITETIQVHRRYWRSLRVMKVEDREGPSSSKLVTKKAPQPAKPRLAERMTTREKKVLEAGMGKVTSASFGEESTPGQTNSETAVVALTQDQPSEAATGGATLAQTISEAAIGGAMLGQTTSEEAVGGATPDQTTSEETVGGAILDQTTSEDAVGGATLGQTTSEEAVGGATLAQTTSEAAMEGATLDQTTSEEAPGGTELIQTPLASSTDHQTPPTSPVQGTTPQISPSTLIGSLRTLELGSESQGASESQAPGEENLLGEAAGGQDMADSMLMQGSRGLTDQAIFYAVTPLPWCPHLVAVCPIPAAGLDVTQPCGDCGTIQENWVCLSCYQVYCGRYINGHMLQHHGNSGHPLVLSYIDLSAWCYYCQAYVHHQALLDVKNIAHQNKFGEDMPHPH
Put plainly: Inhibitory concentration against human Histone deacetylase 6.

Assay [2] has as its target Histone deacetylase 1 (Homo sapiens, UniProt Q13547). As to the kind of experiment: Inhibitory concentration against human Histone deacetylase 1.
Assay [3] addresses Histone deacetylase 2 (Homo sapiens, UniProt Q92769). As to the kind of experiment: Inhibitory concentration against human Histone deacetylase 2.
Assay [4] deals with Histone deacetylase 1 (Homo sapiens, UniProt Q13547, C151S). As to the kind of experiment: Inhibitory concentration against human Histone deacetylase 1 (C151S).
Histone deacetylase 1 (Homo sapiens, UniProt Q13547, C151S), sequence (Q13547 whole entry C151S): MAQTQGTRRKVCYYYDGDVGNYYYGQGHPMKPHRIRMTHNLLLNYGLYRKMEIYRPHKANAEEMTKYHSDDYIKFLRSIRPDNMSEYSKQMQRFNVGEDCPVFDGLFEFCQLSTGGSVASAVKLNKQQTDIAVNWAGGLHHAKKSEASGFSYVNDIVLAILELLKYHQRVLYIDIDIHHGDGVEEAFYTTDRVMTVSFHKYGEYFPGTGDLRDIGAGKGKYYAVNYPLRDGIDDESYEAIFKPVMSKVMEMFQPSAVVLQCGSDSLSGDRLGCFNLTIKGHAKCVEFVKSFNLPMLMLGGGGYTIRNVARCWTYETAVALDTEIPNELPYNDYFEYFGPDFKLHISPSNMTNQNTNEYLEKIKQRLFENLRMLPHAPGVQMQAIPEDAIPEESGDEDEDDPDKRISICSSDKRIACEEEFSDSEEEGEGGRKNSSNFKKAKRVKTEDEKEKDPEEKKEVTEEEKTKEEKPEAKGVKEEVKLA
Assay [5] deals with Histone deacetylase 4 (Homo sapiens, UniProt P56524).
Histone deacetylase 4, sequence (P56524 whole entry): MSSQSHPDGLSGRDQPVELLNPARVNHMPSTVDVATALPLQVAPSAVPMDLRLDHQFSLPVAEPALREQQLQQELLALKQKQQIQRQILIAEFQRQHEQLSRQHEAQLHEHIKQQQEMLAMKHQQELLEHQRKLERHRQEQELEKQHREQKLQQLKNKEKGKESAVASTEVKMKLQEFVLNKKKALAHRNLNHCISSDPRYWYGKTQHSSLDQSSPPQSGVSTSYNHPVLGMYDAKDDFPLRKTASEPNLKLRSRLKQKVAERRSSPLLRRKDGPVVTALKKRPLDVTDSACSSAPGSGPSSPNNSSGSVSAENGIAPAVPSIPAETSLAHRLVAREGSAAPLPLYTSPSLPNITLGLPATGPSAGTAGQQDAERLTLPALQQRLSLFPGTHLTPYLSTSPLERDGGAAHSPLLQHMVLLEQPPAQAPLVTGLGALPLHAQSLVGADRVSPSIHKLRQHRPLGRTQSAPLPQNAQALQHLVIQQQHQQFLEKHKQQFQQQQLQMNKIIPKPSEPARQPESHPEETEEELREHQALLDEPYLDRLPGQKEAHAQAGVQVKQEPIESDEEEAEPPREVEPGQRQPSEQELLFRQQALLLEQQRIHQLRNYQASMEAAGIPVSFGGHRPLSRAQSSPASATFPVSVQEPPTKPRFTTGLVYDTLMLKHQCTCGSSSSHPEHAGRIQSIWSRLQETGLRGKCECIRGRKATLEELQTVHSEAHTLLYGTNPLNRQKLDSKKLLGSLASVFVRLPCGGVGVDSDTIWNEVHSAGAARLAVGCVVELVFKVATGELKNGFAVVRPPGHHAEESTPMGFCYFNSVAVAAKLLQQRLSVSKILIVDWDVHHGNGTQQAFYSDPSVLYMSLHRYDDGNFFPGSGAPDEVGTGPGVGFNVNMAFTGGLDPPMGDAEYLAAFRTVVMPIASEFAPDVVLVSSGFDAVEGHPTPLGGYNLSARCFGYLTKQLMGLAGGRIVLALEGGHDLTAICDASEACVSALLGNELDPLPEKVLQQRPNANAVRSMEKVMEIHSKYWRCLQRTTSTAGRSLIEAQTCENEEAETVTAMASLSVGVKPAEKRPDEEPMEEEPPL
Description: Inhibitory concentration against human Histone deacetylase 4
The target in assay [6] is T2, Histone deacetylase HD2 (Zea mays, UniProt Q94F81).
T2 sequence (Q94F81 whole entry): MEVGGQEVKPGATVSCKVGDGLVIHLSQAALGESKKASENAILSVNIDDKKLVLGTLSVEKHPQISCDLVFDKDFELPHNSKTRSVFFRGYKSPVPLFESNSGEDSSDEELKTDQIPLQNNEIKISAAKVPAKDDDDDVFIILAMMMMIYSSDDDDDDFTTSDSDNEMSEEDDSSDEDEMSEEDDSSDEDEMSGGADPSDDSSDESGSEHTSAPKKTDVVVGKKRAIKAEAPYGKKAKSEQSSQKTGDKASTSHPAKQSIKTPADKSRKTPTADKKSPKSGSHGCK
Put plainly: Inhibitory concentration against maize Histone deacetylase 2.

Assay [7] deals with Jurkat. Put plainly: In vitro inhibitory concentration against human Jurkat cell proliferation. The class given is functional, cell-based.
Assay [8] concerns HT-29. As to the kind of experiment: In vitro inhibitory concentration against HT-29 tumor cell proliferation. Format: functional, cell-based. Particulars: Homo sapiens.
Assay [9] can be described thus: Inhibitory concentration against mixed human Histone deacetylase 1, Histone deacetylase 2 and Histone deacetylase 3.
Assay [10] concerns the target T3, Histone deacetylase (Homo sapiens) (UniProt Q13547+O15379+Q9UBN7+Q92769+Q9UQL6+Q8WUI4+Q9BY41+Q96DB2+P56524+Q9UKV0+Q969S8). Put plainly: Percent inhibition against isolated Histone deacetylase enzyme at 30 uM. The class given is protein assay.
The target in assay [11] is T3, Histone deacetylase (Homo sapiens). As to the kind of experiment: Inhibitory concentration against human Histone deacetylase. The class given is protein assay. The settings on record: concentration not given here.
The subject of assay [12] is HCT-116. Put plainly: Inhibitory concentration against HCT116 cells proliferation. Format: functional, cell-based. Particulars: Homo sapiens.
The target of assay [13] is Histone deacetylase. Format: protein assay, Homo sapiens.
Description: Inhibitory concentration against histone deacetylase

Drawing on ChEMBL document CHEMBL1145900, “Histone deacetylase inhibitors” (J Med Chem, 2003), this text covers IC50 and inhibition for nine molecules.

Molecules are shown by their SMILES. pIC50: −log10 of the molar value. In brackets after ≈: the same amount, converted by molar mass.

Histone deacetylase 2, sequence (Q92769 whole entry): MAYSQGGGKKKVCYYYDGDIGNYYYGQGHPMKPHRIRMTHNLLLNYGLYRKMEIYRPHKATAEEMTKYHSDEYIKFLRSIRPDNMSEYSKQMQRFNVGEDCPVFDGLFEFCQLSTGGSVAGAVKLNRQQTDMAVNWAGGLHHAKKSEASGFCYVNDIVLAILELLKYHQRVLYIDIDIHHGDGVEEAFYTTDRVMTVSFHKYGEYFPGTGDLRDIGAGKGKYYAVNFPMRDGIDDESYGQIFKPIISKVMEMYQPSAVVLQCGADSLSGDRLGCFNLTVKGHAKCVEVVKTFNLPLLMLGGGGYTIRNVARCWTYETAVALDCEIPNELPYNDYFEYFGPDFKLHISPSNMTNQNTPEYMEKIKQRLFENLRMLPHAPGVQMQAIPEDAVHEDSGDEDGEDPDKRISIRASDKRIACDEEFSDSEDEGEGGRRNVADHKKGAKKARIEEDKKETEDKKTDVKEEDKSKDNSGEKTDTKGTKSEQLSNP
Histone deacetylase 1 (Homo sapiens, UniProt Q13547), sequence (Q13547 whole entry): as the sequence (Q13547 whole entry C151S) above, with S151C counted along it

Take `C/C=C1\NC(=O)[C@@H](CSC)NC(=O)[C@@H](C(C)C)CC(=O)C[C@@H](/C=C/CCSC)OC(=O)[C@H](C(C)C)NC1=O`: the pIC50 – broadly, the IC50 on a negative log10 scale, so that one unit is a factor of ten – in assay [1] is below 4.00; in assay [2], 5.20; in assay [3], 5.48; in [4] it was below 4.00; in assay [5], 3.96. `CN(C)c1ccc(C(=O)Nc2ccc(CC(=O)NO)cc2)cc1` had a negative-log IC50 (pIC50) in assay [6] below 4.40. Consider `CCC(=O)CCCCC[C@@H]1NC(=O)[C@H]2CCCCN2C(=O)[C@H](Cc2ccccc2)NC(=O)[C@H](Cc2ccccc2)NC1=O`, for which the IC50 – broadly, the concentration that inhibits the measured activity by half – turned out to be 0.152 µg/mL (≈ 0.258 µM) in [7] and 0.158 µg/mL (≈ 0.268 µM) in assay [8]. `N#Cc1ccc(-c2ccc(OCCCCCCC(=O)NO)cc2)cc1`: in assay [9], the pIC50 is 8.05.

On to `Cn1cc(C(=O)Cc2ccccc2)cc1/C=C/C#N`, for which the inhibition (usually the change of the read-out against control, counted positive when it falls) in [10] is 0%. On to `C/C=C1\NC(=O)[C@@H](CS)NC(=O)[C@@H](C(C)C)NC(=O)C[C@@H](/C=C/CCS)OC(=O)[C@H](C(C)C)NC1=O` [FR-135313], for which the figures for the pIC50 in [1], in assay [3] and in assay [5] were 6.10, 8.41 and 7.60, respectively.

As for `O=C(CCCCCCCOc1ccc(-c2ccccc2)cc1)C(F)(F)F`, the inhibition in assay [11] came to 72%. Take `C/C=C1\NC(=O)[C@H]2CSSCC/C=C/[C@H](CC(=O)N[C@H](C(C)C)C(=O)N2)OC(=O)[C@H](C(C)C)NC1=O` [ROMIDEPSIN]: the pIC50 in [4] is 6.55.

`O=C(/C=C/c1ccc(CNCCCc2ccccc2)cc1)NO` had a pIC50 in assay [12] of 7.19. For the same molecule, the IC50 in assay [13] was 64 nM.
